Assay results as given in PubChem BioAssay (NCI).
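The compound was tested at five concentrations on cells cultured in 96-well plates, with a 48-hour exposure period. The concentration for full growth arrest is given as TGI.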

What was measured:
Test in all cases: DTP human tumour cell line panel, 48 h
COLO 205 colon = test system: COLO 205 colon
M14 melanoma = test system: M14 melanoma
MDA-MB-231 breast = test system: MDA-MB-231 breast
TK-10 renal = test system: TK-10 renal
SF-295 CNS = test system: SF-295 CNS
T-47D breast = test system: T-47D breast
RXF 393 renal = test system: RXF 393 renal
UO-31 renal = test system: UO-31 renal
U251 CNS = test system: U251 CNS
SN12C renal = test system: SN12C renal
MCF7 breast = test system: MCF7 breast
PC-3 prostate = test system: PC-3 prostate
NCI-H23 lung = test system: NCI-H23 lung
MDA-N = test system: MDA-N

| SMILES | TGI (COLO 205 colon) | TGI (M14 melanoma) | TGI (MDA-MB-231 breast) | TGI (TK-10 renal) | TGI (SF-295 CNS) | TGI (T-47D breast) | TGI (RXF 393 renal) | TGI (UO-31 renal) | TGI (U251 CNS) | TGI (SN12C renal) | TGI (MCF7 breast) | TGI (PC-3 prostate) | TGI (NCI-H23 lung) | TGI (MDA-N) |
| --- | --- | --- | --- | --- | --- | --- | --- | --- | --- | --- | --- | --- | --- | --- |
| C=CC(OC(C)=O)c1ccc(OC(=O)C(C)C)c(OC)c1 (configuration not stated) | 7.65 µM | 17.3 µM | 18.4 µM | 11.5 µM | 24.7 µM | 21.9 µM | 14.4 µM | 10.9 µM | 7.07 µM | 15.2 µM | 5.54 µM | 19.3 µM | 47.7 µM | 16.8 µM |
| CSCCCS/C1=C/CCCCCCCCCC1 | > 100 µM | > 100 µM | > 100 µM | > 100 µM | > 100 µM | > 100 µM | > 100 µM | > 100 µM | > 100 µM | > 100 µM | > 100 µM | > 100 µM | > 100 µM | > 100 µM |
| CC12CC3OC(=O)C1COC14OC5(C2C1=O)C(O)(CCC1C4CC2OC24CC=CC(=O)C14C)C(=O)OC35C (configuration not stated) | 22.1 µM | 44 µM | 37 µM | 30.8 µM | 69.5 µM | 37.3 µM | 13.4 µM | 31.1 µM | 35.9 µM | 60.1 µM | 40.9 µM | 40.1 µM | 33.1 µM | 29.4 µM |
| CSc1cc(-c2ccccn2)nc(-c2ccccn2)c1 | 7.29 µM | 0.335 µM | 18.1 µM | 0.75 µM | 11.5 µM | 17.6 µM | 4.47 µM | 1.64 µM | 11.7 µM | 13.4 µM | 10.1 µM | 17.9 µM | 7.25 µM | 16 µM |
| COc1ccc(/C=C/C(=O)c2cc(C(C)(C)C)c(O)c(C(C)(C)C)c2)cc1OC | 31.9 µM | > 100 µM | 51.6 µM | 47.4 µM | > 71.1 µM | 24.4 µM | 7.69 µM | 57.9 µM | 29.8 µM | 65.5 µM | 32.4 µM | > 46.4 µM | > 68.9 µM | > 33.3 µM |
| CC(=O)OC(Cc1ccc2ccccc2n1)(C(F)(F)F)C(F)(F)F | 1.98 µM | 3.48 µM | 4.12 µM | 2.55 µM | 10.9 µM | 0.912 µM | 2.84 µM | 7.12 µM | 18.2 µM | 7.27 µM | 0.559 µM | 11.7 µM | 6.95 µM | 3.54 µM |
| CCCCCCCCCCCCc1ccc(S(=O)(=O)O)cc1.[Zn+2] | > 100 µM | > 100 µM | > 100 µM | > 100 µM | > 100 µM | > 100 µM | > 100 µM | > 100 µM | > 100 µM | > 100 µM | > 100 µM | > 100 µM | > 100 µM | > 100 µM |
| NNc1nncc2[nH]cnc12 | > 100 µM | > 100 µM | > 100 µM | > 100 µM | > 100 µM | > 100 µM | > 100 µM | > 100 µM | > 100 µM | > 100 µM | > 100 µM | > 100 µM | > 100 µM | > 100 µM |
| O=c1oc2ccc([N+](=O)[O-])cc2c(Nc2ccc3c(c2)Sc2ccccc2O3)c1[N+](=O)[O-] | 34.8 µM | 41.6 µM | 38.8 µM | 58.3 µM | 94.3 µM | > 100 µM | 40.2 µM | 37.8 µM | 33.6 µM | 51.2 µM | 56.7 µM | 40.8 µM | 39.1 µM | 88.8 µM |
| COC12CCCN1c1ccn(Cc3ccccc3)c(=O)c1C2=O (configuration not stated) | > 100 µM | > 100 µM | > 100 µM | > 100 µM | > 100 µM | > 100 µM | > 100 µM | > 100 µM | > 100 µM | > 100 µM | > 100 µM | > 100 µM | > 100 µM | > 100 µM |
| COc1ccc(/C=C2\CCS(=O)(=O)c3ccccc3C2=O)cc1OC | > 100 µM | > 100 µM | > 100 µM | > 100 µM | > 100 µM | > 100 µM | > 100 µM | > 100 µM | > 100 µM | > 100 µM | > 100 µM | > 100 µM | > 100 µM | > 100 µM |
| Cc1cn(C2CC(N)C(C(=O)NCC(=O)O)O2)c(=O)[nH]c1=O (configuration not stated) | > 100 µM | > 100 µM | > 100 µM | > 100 µM | – | > 100 µM | > 100 µM | > 100 µM | > 100 µM | > 100 µM | > 100 µM | > 100 µM | > 100 µM | > 100 µM |
